One assay has as its target serotonin 2 receptor (Rattus norvegicus, UniProt P14842). In words: Binding test on [3H] ketanserin (serotonin 2 receptor). Conditions: [3H] ketanserin 0.3 nM, receptor fraction of rat cerebral cortex; read-out: 5HT2.
The target in the next assay is T1, serotonin 1A receptor (Rattus norvegicus, UniProt P19327).
T1 construct: To the receptor fraction of the hippocampus were added a test compound and 0.5 nM of [^3H]; 8-hydroxy-dipropylaminotetralin; from tissue; host or cells: SD rat hippocampus, membrane (receptor) fraction
T1 sequence (P19327 1-422): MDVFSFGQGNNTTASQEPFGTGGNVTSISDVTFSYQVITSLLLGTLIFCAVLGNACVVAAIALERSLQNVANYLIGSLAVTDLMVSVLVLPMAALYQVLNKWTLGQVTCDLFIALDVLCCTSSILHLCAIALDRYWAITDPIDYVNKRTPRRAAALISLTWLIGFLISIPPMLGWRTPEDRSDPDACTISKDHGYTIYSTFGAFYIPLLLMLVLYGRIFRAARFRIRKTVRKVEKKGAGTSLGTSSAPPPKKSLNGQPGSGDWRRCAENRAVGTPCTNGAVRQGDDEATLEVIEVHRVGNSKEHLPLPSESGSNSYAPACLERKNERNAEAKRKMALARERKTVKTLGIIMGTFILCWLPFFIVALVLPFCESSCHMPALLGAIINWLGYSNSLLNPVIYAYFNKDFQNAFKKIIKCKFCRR
In words: Binding test on [3H] 8-hydroxy-dipropylaminotetralin (serotonin 1A receptor). The settings on record: [3H] 8-OH-DPAT 0.5 nM, receptor fraction of rat hippocampus; read-out: 5HT1a.

Some results are limits rather than exact numbers.

serotonin 2 receptor, sequence (P14842 whole entry): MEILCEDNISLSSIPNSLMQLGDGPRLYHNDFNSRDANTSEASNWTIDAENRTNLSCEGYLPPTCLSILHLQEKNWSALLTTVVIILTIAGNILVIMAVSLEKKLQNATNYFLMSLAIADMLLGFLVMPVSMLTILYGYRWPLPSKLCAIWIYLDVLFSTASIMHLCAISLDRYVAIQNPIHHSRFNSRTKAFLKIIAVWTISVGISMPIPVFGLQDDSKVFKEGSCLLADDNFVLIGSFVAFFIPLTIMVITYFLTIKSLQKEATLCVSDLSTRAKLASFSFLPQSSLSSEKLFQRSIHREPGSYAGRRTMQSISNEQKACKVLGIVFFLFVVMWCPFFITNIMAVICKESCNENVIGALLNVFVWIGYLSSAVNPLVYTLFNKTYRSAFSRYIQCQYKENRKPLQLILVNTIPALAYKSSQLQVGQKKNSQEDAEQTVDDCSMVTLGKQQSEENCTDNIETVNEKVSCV
Protocol for serotonin 1A receptor: 3) [^3H] 8-Hydroxy-dipropylaminotetralin (8-OH-DPAT).
Use was made of SD rats aged 6 to 8 weeks.
The rats were sacrificed by dcapitation to extirpate the cerebra.
Each mixture was homogenized by using a Teflon glass homogenizer and centrifuged at 1,000×g for 10 min. The supernatant thus obtained was further centrifuged at 20,000×g for 20 min. The obtained precipitate was re-suspended in 50 times (based on the intial wet weight; in the case of the hippocampus) or 10 times (in the case of the cortex) as much a 50 mM Tris hydrochloride (pH 7.4) and incubated at room temperature for 30 min. After centrifuging at 20,000×g for 20 min, the obtained precipitate was further suspended and centrifuged twice each in the same manner. The precipitate thus obtained was suspended in 100 times (based on the initial wet weight; in the case of the hippocampus) or 20 times (in the case of the cortex) as much a 50 mM Tris hydrochloride solution (pH 7.4) to thereby give a receptor fraction. This receptor fraction was stored at −80° C. until using.
(Binding Test on [^3H] 8-hydroxy-dipropylaminotetralin)
To the receptor fraction of the hippocampus were added a test compound and 0.5 nM of [^3H] 8-hydroxy-dipropylaminotetralin and the resultant mixture was incubated at room temperature for 30 min. Next, it was filtered through a glass filter with the use of a cell harvester. After washing the glass filter with 50 mM Tris hydrochloride (pH 7.4), the radioactivity of the receptor was measured with a liquid scintillation counter. The binding detected in the presence of 10 μM of serotonin binoxalate was referred to as the nonspecific binding.
IC50 was calculated by the probit method, while Ki was determined in accordance with the following formula:
wherein c represents the concentration of the radioisotope-labeled compound, and Kd represents the dissociation constant of the radioisotope-labeled compound with respect to the receptor determined by Scatchard's analysis.

Consider `O=Cc1ccc2c(c1)N(C1CCN(CCc3ccc(F)cc3)CC1)CC2` [Example 130, 1-[1-(4-fluorophenethyl)piperidin-4-yl]-6-formylindoline], for which the Ki on serotonin 2 receptor came out at 9.12 nM; at serotonin 1A receptor, 0.49 nM.
On to `O/N=C/c1ccc2c(c1)N(C1CCN(CCc3ccc(F)cc3)CC1)CC2` [Example 131, 1-[1-(4-fluorophenethyl)piperidin-4-yl]-6-hydroxyiminomethylindoline], for which the Ki is 15.2 nM on serotonin 2 receptor and 0.17 nM on serotonin 1A receptor.
For `NCc1ccc2c(c1)N(C1CCN(CCc3ccc(F)cc3)CC1)CC2` [Example 132, 1-[1-(4-fluorophenethyl)piperidin-4-yl]-6-aminomethylindoline], in that order: 14.3 nM and 2.08 nM.
Take `OCc1ccc2c(c1)N(C1CCN(CCc3ccc(F)cc3)CC1)CC2` [Example 136, 1-[1-(4-fluorophenethyl)piperidin-4-yl]-6-hydroxymethylindoline]: the Ki on serotonin 2 receptor is 6.2 nM; at serotonin 1A receptor, 3.4 nM.
With `CCC(O)c1ccc2c(c1)N(C1CCN(CCc3ccc(F)cc3)CC1)CC2` (stereo not drawn) [Example 138, 1-[1-(4-fluorophenethyl)piperidin-4-yl]-6-(1-hydroxypropyl)indoline], the Ki at serotonin 2 receptor came out at 5.93 nM; at serotonin 1A receptor, 1.98 nM.
`CC(C)(O)c1ccc2c(c1)N(C1CCN(CCc3ccc(F)cc3)CC1)CC2` [Example 139, 1-[1-(4-fluorophenethyl)piperidin-4-yl]-6-(1-hydroxy-1-methylethyl)indoline]: the results for the Ki at serotonin 2 receptor and on serotonin 1A receptor were 8.8 nM and 2.31 nM, respectively.
Regarding `OC1(c2ccc3c(c2)N(C2CCN(CCc4ccc(F)cc4)CC2)CC3)CCC1` [Example 140, 1-[1-(4-fluorophenethyl)piperidin-4-yl]-6-(1-hydroxycyclobutyl)indoline], the Ki at serotonin 2 receptor was determined as 35.1 nM; at serotonin 1A receptor it was 6.23 nM.
With `OC1(c2ccc3c(c2)N(C2CCN(CCc4ccc(F)cc4)CC2)CC3)CCCC1` [Example 141, 1-[1-(4-fluorophenethyl)piperidin-4-yl]-6-(1-hydroxycyclopentyl)indoline], the figures for the Ki at serotonin 2 receptor and on serotonin 1A receptor were 343 nM and 3.03 nM, respectively.
Consider `FCc1ccc2c(c1)N(C1CCN(CCc3ccc(F)cc3)CC1)CC2` [Example 143, 1-[1-(4-fluorophenethyl)piperidin-4-yl]-6-fluoromethylindoline], for which the Ki on serotonin 2 receptor was 3.36 nM; on serotonin 1A receptor, 1.86 nM.
For `CC(F)c1ccc2c(c1)N(C1CCN(CCc3ccc(F)cc3)CC1)CC2` (stereo not drawn) [Example 144, 1-[1-(4-fluorophenethyl)piperidin-4-yl]-6-(1-fluoroethyl)indoline], in that order: 3.38 nM and 1.49 nM.
Regarding `N#CCc1ccc2c(c1)N(C1CCN(CCc3ccc(F)cc3)CC1)CC2` [Example 145, 1-[1-(4-fluorophenethyl)piperidin-4-yl]-6-cyanomethylindoline], the Ki was found to be 48.8 nM at serotonin 2 receptor and 8.07 nM on serotonin 1A receptor.
For `O=C(O)Cc1ccc2c(c1)N(C1CCN(CCc3ccc(F)cc3)CC1)CC2` [Example 146, 1-[1-(4-fluorophenethyl)piperidin-4-yl]-6-carboxymethylindoline], in that order: more than 200 nM and 164 nM.
The corresponding values for `CNC(=O)Cc1ccc2c(c1)N(C1CCN(CCc3ccc(F)cc3)CC1)CC2` [Example 148, 1-[1-(4-fluorophenethyl)piperidin-4-yl]-6-(methylcarbamoylmethyl)indoline] are 0.25 nM and 9.58 nM.
Take `CCCNC(=O)Cc1ccc2c(c1)N(C1CCN(CCc3ccc(F)cc3)CC1)CC2` [Example 150, 1-[1-(4-fluorophenethyl)piperidin-4-yl]-6-(n-propylcarbamoylmethyl)indoline]: the Ki is 0.16 nM on serotonin 2 receptor and 13 nM on serotonin 1A receptor.
As for `CC(C)CNC(=O)Cc1ccc2c(c1)N(C1CCN(CCc3ccc(F)cc3)CC1)CC2` [Example 152, 1-[1-(4-fluorophenethyl)piperidin-4-yl]-6-(isobutylcarbamoylmethyl)indoline], the Ki on serotonin 2 receptor worked out at 0.27 nM; on serotonin 1A receptor it was 16.4 nM.

Values taken from US6579881B2 (Eisai Co., Ltd., priority 1997, dated 2003).
